Values quoted from earlier work in patent EP2497775A1, “Ferrocene-based compounds and their use as ROS regulating prodrugs” (Ruprecht-Karls-Universität Heidelberg, priority 2011, dated 2012).

Columns and labels:
HCT8 (colon) = conditions: ref. [8]; cited from earlier work
HL-60 (leukemia) = conditions: ref. [8]; cited from earlier work
Human multiple myeloma = conditions: ref. [7]; cited from earlier work
SW480 (Human, colon) = conditions: ref. [3]; cited from earlier work
HT29 (Human, colon) = conditions: ref. [4]; cited from earlier work
WiDr (Human, colon) = conditions: ref. [1]; cited from earlier work
[1] = test system: different neuroblastoma cell lines; conditions: ref. [2]; cited from earlier work
(Human, breast) = conditions: ref. [1]; cited from earlier work
8226 (Human myeloma) = conditions: ref. [1]; cited from earlier work

CC1(C)CCC2=C(O1)c1ccccc1C(=O)C2=O [β-Lapachone]
IC50 (HCT8 (colon)): 830 nM | IC50 (HL-60 (leukemia)): 1650 nM | IC50 (Human multiple myeloma): 1000 nM

CC(=O)Oc1ccccc1C(=O)Oc1cccc(CO[N+](=O)[O-])c1 [NO-ASA]
IC50 (SW480 (Human, colon)): 85000 nM | IC50 (HT29 (Human, colon)): 3000 to 7000 nM

CCCCS(=N)(=O)CCC(N)C(=O)O (stereo not drawn) [Buthionine sulfoximine (BSO), Buthionine sulfoximine]
IC50 (WiDr (Human, colon)): 450000 nM | IC50 [1]: 300 to 311000 nM | IC50 ((Human, breast)): 850000 nM | IC50 (8226 (Human myeloma)): 2000 nM
